Patent US20060166957A1, “Methods of treating obesity and related disorders using tellurium selenium compounds” (priority 2003, published 2006)
Like-named read-outs stand apart in the source and are kept apart here.

What was measured:
ob/ob mice = assay: AS101 in drinking water of ob/ob mice in metabolic cages: body weight, food intake, blood glucose; type: in vivo
Experimental: Female ob/ob mice (8 weeks old) were placed in metabolic cages and were given free drinking water and chow. After 48 h, one group of 3 mice (the Control group) continued to receive water and chow. A second group of 3 mice received drinking water containing AS 101 (7 mg/L) in addition to the standard chow. The experiment was continued for 18 days and body weights were measured daily. On the average the mice consumed about 1.5 ml of water per 24 h, corresponding to 10 microgram AS101 per mouse per day. This value corresponds to 0.25 mg/kg body weight per 24 h.
On the average, food consumption was reduced by 26±7% (p<0.02, n=16, FIG. 2).
On the last day of treatment, tail blood was withdrawn and blood glucose was determined in three control mice and three mice of the AS101 group.

[1] = test system: liver tissue of ob/ob mice; assay: Microscopic examination of liver tissue of ob/ob mice after 18 days of AS101 treatment; type: in vivo; conditions: 18 days AS101 treatment, vs control mice, FIG. 4
Text: Following 18 days treatment of the ob/ob mice with AS101 as described in Example 1, the animals were sacrificed. Samples of liver tissue were taken, fixed with formaldehyde and tissue slices were examined microscopically (FIG. 4).

[2] = test system: diet-induced obese C57BL/6 mice; assay: Body weight of diet-induced obese C57BL/6 mice injected daily with AS101; type: in vivo
Experimental: Since the obesity of ob/ob mice is of genetic origin, whereas obesity among human populations is largely due to excess eating over energy expenditure, the effect of AS101 on body weight was studied in diet-induced obese mice. Female mice were fed for 10 weeks with a high fat diet, resulting in moderate obesity (average weight 37 g). Mice were placed in metabolic cages and injected daily with either saline (Control group, 3 mice) or AS 101 (0.5 mg/kg body weight in saline, AS101 group, 3 mice). High fat diet was continued and the body weight was determined daily. […] Therefore, AS101 is an effective medicament for the treatment of diet-induced obesity.

[3] = test system: Swiss 3T3-F442A murine pre-adipocytes; assay: Differentiation of pre-adipocytes into mature adipocytes, oil red staining; type: cell-based; conditions: AS101 0.2 micrograms/ml, six days in DMEM with 10% FBS, oil red stain, FIG. 6
Experimental: To gain insight on the mechanism by which AS101 affects the adipose tissue, its effect was studied on an in-vitro model of differentiation of pre-adipocytes into mature adipocytes. It should be clarified here that adipocytes are fully differentiated cells. […] Besides increase in cell volume, the only way to gain weight in vivo is by generating new adipocytes from pre-adipocytes by differentiation. Swiss 3T3-F442A murine pre-adipocytes were grown in DMEM (GIBCO, USA) with 10% calf serum. To induce differentiation into mature adipocytes, confluent cell cultures were maintained in DMEM supplemented with 10% fetal bovine serum (FBS) for six days, either in the presence or in the absence of AS101 (0.2 micrograms/ml). The cultures were then stained with oil red, which specifically stains the fat droplets within the cells.

6-week-old mice = conditions: cited from earlier work

With `Cl[TeH]1(Cl)(Cl)OCCO1` [AS101, ammonium trichloro(dioxoethylene-O,O′)tellurate] as the molecule, how does the body weight gain (ob/ob mice; female ob/ob mice, AS101 7 mg/L in drinking water (0.25 mg/kg body weight per 24 h), 18 days, vs Control group, FIG. 1) read?
The body weight gain was “did not gain weight significantly”.

And the “reduction of food consumption, on the average” value (ob/ob mice; female ob/ob mice, AS101 7 mg/L in drinking water, daily food consumption, p<0.02, n=16, FIG. 2)?
Its value is 26±7%.

And the blood glucose (ob/ob mice; ob/ob mice, tail blood on the last day of treatment (18 days), AS101 7 mg/L in drinking water, FIG. 3)?
The blood glucose was “statistically significant (p<0.05) reduction”.

What about the “number and size of adipocytes in liver tissue” value [1] of the same molecule?
Its value is “extensive reduction in the number of adipocytes and in their size”.

And the body weight ([2]; female mice on high fat diet, AS101 0.5 mg/kg body weight in saline injected daily, vs saline control, FIG. 5)?
The body weight was “reduced significantly and continued to drop through the entire study”.

What about the food intake ([2]; normal mice rendered obese by high-fat diet, AS101 by daily injections) of the same molecule?
Its food intake is “reduction of food intake”.

And the “differentiation of pre-adipocytes into mature adipocytes (fat droplets)” value [3]?
The value was “inhibited the differentiation”.

What about the LD50 (6-week-old mice) of the same molecule?
The LD50 was 300 μg/25 g of body weight.

And the LD50 (6-week-old mice; same value re-expressed)?
Its LD50 is 12 mg/kg body weight.
